Laboratory results: ChEMBL document CHEMBL1128999, “Synthesis and evaluation of 2-aryl-4H-3,1-benzoxazin-4-ones as C1r serine protease inhibitors” (Bioorg Med Chem Lett, 1996)

Experiments:
[1] = biological target: T1, Complement C1r subcomponent (Homo sapiens, UniProt P00736); assay: (§1) Inhibitory activity against C1r serine protease
T1 sequence (P00736 whole entry): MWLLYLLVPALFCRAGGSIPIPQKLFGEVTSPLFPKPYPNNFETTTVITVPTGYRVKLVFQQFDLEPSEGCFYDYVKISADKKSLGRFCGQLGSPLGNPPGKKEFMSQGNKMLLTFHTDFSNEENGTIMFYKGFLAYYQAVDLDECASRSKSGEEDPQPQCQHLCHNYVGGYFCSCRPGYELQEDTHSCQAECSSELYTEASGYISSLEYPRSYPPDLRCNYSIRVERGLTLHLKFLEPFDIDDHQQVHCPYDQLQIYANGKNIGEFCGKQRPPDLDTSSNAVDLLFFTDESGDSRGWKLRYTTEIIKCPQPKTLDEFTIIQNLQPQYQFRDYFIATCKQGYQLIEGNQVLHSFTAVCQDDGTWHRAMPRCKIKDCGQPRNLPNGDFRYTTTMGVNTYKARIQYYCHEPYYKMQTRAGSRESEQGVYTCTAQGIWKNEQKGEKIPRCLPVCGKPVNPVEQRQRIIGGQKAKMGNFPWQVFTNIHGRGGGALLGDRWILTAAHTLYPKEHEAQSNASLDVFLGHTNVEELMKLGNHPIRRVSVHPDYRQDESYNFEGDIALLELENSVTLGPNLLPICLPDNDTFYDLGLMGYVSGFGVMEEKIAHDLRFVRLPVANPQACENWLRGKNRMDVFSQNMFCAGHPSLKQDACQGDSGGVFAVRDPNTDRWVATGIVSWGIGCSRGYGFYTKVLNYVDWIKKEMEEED

[2] = biological target: T1, Complement C1r subcomponent; assay: as §1; remark: listed apart in the source
[3] = biological target: T1, Complement C1r subcomponent; assay: Inhibition of C1r serine protease
[4] = biological target: T2, Complement C1r subcomponent (Homo sapiens) (UniProt P00736); details: at 10 µM
T2 sequence (whole entry): T1 sequence (P00736 whole entry)

[5] = biological target: T2, Complement C1r subcomponent (Homo sapiens); assay: Compound was evaluated for percentage inhibitory activity against C1r serine protease in assay 1 at a concentration of 10 uM
[6] = biological target: T1, Complement C1r subcomponent; assay: Compound was evaluated for inhibitory activity against C1r serine protease.
[7] = biological target: Kallikrein-1 (Homo sapiens, UniProt P06870); assay: Compound was evaluated for inhibitory activity against Kallikrein.
[8] = biological target: T3, Complement C1s subcomponent (Homo sapiens, UniProt P09871); assay: Compound was evaluated for inhibitory activity against C1s serine protease.
T3 sequence (P09871 whole entry): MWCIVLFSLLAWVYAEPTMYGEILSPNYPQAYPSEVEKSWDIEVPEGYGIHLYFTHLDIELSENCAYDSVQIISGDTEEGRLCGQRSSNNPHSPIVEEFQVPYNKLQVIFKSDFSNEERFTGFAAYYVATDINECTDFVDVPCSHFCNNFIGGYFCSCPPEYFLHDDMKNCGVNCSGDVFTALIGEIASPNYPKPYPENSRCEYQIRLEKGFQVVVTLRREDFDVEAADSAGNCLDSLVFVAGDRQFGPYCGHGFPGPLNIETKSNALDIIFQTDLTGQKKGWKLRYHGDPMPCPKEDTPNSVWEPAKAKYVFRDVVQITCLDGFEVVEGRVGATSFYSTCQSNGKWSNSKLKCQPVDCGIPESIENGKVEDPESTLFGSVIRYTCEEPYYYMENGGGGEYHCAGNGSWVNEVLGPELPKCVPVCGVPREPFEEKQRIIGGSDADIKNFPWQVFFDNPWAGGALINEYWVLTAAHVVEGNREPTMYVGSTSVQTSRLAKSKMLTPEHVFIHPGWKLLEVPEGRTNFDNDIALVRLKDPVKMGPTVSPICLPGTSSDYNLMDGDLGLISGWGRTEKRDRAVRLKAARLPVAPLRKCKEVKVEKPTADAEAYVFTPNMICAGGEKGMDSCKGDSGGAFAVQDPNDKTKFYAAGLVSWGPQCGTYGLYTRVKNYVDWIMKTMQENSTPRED

[9] = biological target: Prothrombin (Homo sapiens, UniProt P00734); assay: Compound was evaluated for inhibitory activity against Thrombin.
[10] = biological target: T1, Complement C1r subcomponent; assay: Compound was evaluated for inhibitory activity against C1r serine protease in assay 2 at t=60 min.
[11] = biological target: Plasminogen (Homo sapiens, UniProt P00747); assay: Compound was evaluated for inhibitory activity against plasmin.
[12] = biological target: Serine protease 1 (Homo sapiens, UniProt P07477); assay: Compound was evaluated for inhibitory activity against Trypsin.
[13] = biological target: T1, Complement C1r subcomponent; assay: Compound was evaluated for inhibitory activity against C1r serine protease in assay 1

Chain of Kallikrein-1 (P06870 whole entry): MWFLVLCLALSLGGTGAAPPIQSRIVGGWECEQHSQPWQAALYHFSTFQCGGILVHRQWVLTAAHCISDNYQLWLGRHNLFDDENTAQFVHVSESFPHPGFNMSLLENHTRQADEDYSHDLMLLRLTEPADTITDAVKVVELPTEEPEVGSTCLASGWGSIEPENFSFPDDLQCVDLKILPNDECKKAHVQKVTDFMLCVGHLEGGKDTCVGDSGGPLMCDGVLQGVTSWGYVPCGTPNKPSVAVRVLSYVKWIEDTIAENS
Chain of Plasminogen (P00747 97-580 limits assumed): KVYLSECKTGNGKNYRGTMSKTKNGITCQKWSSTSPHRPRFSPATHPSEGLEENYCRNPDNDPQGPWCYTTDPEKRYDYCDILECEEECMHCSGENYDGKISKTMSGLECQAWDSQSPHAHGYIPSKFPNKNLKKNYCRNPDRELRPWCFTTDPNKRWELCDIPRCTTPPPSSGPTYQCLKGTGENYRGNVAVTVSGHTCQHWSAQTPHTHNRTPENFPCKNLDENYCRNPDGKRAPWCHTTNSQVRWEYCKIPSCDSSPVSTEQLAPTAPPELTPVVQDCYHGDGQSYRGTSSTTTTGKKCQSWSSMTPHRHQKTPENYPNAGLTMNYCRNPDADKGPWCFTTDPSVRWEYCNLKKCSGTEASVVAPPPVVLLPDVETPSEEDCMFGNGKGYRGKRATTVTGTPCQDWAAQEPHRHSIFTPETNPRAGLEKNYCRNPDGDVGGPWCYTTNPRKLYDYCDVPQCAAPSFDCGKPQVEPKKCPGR
Chain of Plasminogen (P00747 581-810 limits assumed): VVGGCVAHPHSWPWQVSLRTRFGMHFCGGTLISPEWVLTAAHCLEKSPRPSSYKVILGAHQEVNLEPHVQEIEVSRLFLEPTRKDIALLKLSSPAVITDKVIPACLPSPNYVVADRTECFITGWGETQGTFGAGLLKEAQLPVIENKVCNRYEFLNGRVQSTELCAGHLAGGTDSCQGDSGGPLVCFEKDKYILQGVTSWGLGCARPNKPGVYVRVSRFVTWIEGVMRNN
Chain of Serine protease 1 (P07477 whole entry): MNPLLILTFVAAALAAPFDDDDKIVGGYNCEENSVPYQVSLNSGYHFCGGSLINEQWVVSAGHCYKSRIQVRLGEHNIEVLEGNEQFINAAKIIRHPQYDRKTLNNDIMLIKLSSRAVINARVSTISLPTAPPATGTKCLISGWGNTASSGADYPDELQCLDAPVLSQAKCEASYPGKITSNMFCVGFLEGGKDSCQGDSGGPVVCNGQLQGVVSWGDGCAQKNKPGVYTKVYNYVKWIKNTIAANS

Row | Compound | IC50 [1] [µM] | IC50 [2] [µM] | IC50 [3] [µM] | further results
1 | O=c1oc(Cc2ccccc2I)nc2ccccc12 | 26 | 40 | 6 | 
2 | O=c1oc(-c2ccccc2I)nc2cc([N+](=O)[O-])ccc12 | 22 | > 62.5 |  | inhibition [4]: 0%
3 | O=c1oc(-c2ccccc2Br)nc2ccccc12 | 32 | 46 | 9.5 | 
4 | O=c1oc(-c2ccccc2C(F)(F)F)nc2ccccc12 | 35.4 | > 62.5 | 4.2 | 
5 | COc1cc2nc(-c3ccccc3I)oc(=O)c2cc1OC | > 62.5 | > 62.5 |  | inhibition [5]: 18%
6 | O=C(O)c1ccccc1-c1nc2ccccc2c(=O)o1 | > 62.5 | > 62.5 |  | inhibition [4]: 25%
7 | O=c1oc(-c2ccccc2I)nc2cccc(Cl)c12 | 13.5 | 57 | 3 | 
8 | N=C(N)c1ccc2cc(OC(=O)c3ccc(N=C(N)N)cc3)ccc2c1 [NAFAMOSTAT] |  | 12 | 1 | IC50 [6]: 1.04 µM; IC50 [7]: 0.65 µM; IC50 [8]: 0.14 µM; IC50 [9]: 0.29 µM
9 | COc1ccc2nc(-c3ccccc3I)oc(=O)c2c1 | > 62.5 | > 62.5 | 5 | 
10 | COc1ccc2c(=O)oc(-c3ccccc3I)nc2c1 | > 62.5 | > 62.5 |  | inhibition [5]: 27%
11 | O=c1oc(-c2ccccc2I)nc2cc3ccccc3cc12 | > 62.5 | > 62.5 | 0.7 | 
12 | O=c1oc(-c2ccccc2[N+](=O)[O-])nc2ccccc12 | 15 | > 62.5 | 36.3 | 
13 | O=c1oc(-c2ccccc2I)nc2cc(Cl)c(Cl)cc12 | > 62.5 | > 62.5 | 1.7 | 
14 | O=c1oc(-c2ccccc2I)nc2ccccc12 | 16.7 |  |  | IC50 [10]: 50 µM; IC50 [6]: 1.37 µM; IC50 [7]: 9.89 µM; IC50 [11]: 6.68 µM; IC50 [12]: 15.3 µM; IC50 [8]: 1.25 µM; IC50 [13]: 1.4 µM; IC50 [9]: 0.51 µM
15 | O=c1oc(-c2ccccc2I)nc2ccc(Cl)cc12 | 7.8 | 27.3 | 3 | 
